Laboratory results published in ChEMBL document CHEMBL1143307, “Small-molecule perturbation of competing interactions between c-Myc and Max” (Bioorg Med Chem Lett, 2009).

Key:
[1] = Decrease in c-Myc-p21MAX heterodimer binding to E-box DNA at 50 uM by EMSA method
[2] = Binding affinity to fluorescently tagged c-Myc-p21MAX heterodimer assessed as competitive constant by using fluorescence polarization titration

fold change (FC) [1]: 2
Activity [2]: 12
SMILES: CCc1ccc(/C=C2\SC(=S)NC2=O)cc1
